# *1 amine or outer side, *2 acyl side, *3 side chain or, on linkers, in order; H or OH if unused. Where a SMILES comes first, the peptide text is derived from it. Bridges are numbered along the chain shown (N, C = ends). Roman numbers before positions name the chains, in order. [ ]: non-standard residue; d: D form. Actinocin(9to1) = Cc1c2oc3c(C)ccc(C(=O)[*:1])c3nc-2c(C(=O)[*:2])c(N)c1=O; NMeV = CN[C@H](C(=O)O)C(C)C; Sar = CNCC(=O)O
# How the values were obtained:
# [1] = tested on: KB: epidermal carcinoma of the oral cavity; assay: In vivo antitumor activity (hollow fiber assay), KB; conditions: for % Inhibition (cell line) KB: location s.c., i.p. doses (mg/kg): sootepenseone 4 × 10, Actinomycin D 4 × 0.1, Adriamycin 4 × 4, Bleomycin 4 × 8, Vinblastin 4 × 0.65
# Description: (§1) The hollow-fiber test was carried out as described by Melinda G. Hollingshead et al. in Life Sciences, Vol. 57, No. 2, pp.131-141, 1995.
# [2] = tested on: mice; assay: Toxicity (LD50, i.p., mice)
# [3] = tested on: MCF-7: human breast cancer; assay: In vivo antitumor activity (hollow fiber assay), MCF-7; conditions: location s.c.; i.p. doses (mg/kg): sootepenseone 4 × 10, Actinomycin D 4 × 0.1, Adriamycin 4 × 4, Bleomycin 4 × 8, Vinblastin 4 × 0.65; negative values = increase in cell growth
# Description: as §1
# [4] = in vivo; conditions: mouse, ip
# [5] = tested on: KB: epidermal carcinoma of the oral cavity; assay: XTT proliferation/cytotoxicity test, KB; type: cell-based; conditions: all tested tumor cell lines (KB, L1210, SK-OV-3, LNCAP)
# Description: The XTT-assay was carried out as described by D. A. Scudiero et al., Cancer Res. 48 (Sep. 1, 1988), pp. 4827-4833. The results of this procedure are expressed as that dose which inhibits growth by 50% as compared to control growth after 45 hours following application of the substance. The dose value as obtained is referred to as ED 50 and activity is indicated for ED 50 levels of ≦30 μg/ml. […] The activities of sootepenseone (1) obtained in Example 1 are reported below in Table 2.
compound,measurement,setting,value
"Cc1c2oc3c(C)ccc(C(=O)N[C@@H]4C(=O)N[C@H](C(C)C)C(=O)N5CCC[C@H]5C(=O)N(C)CC(=O)N(C)[C@@H](C(C)C)C(=O)O[C@@H]4C)c3nc-2c(C(=O)N[C@@H]2C(=O)N[C@H](C(C)C)C(=O)N3CCC[C@H]3C(=O)N(C)CC(=O)N(C)[C@@H](C(C)C)C(=O)O[C@@H]2C)c(N)c1=O [Actinomycin D] (I: T[dV]P[Sar][NMeV] / II: T[dV]P[Sar][NMeV]; ester I:1-I:C, II:1-II:C; linker I:N-II:N via Actinocin(9to1))",% Inhibition (cell line) KB,[1],40%
same,LD50 (mg/kg i.p. mice),[2],ca. 1 mg/kg
COc1cccc2c1C(=O)c1c(O)c3c(c(O)c1C2=O)C[C@@](O)(C(=O)CO)C[C@@H]3O[C@H]1C[C@H](N)[C@H](O)[C@H](C)O1 [Adriamycin],% Inhibition (cell line) KB,[1],52%
same,% Inhibition (cell line) MCF-7,[3],41%
same,LD50,[4],~40 mg/kg
"CC(C)=CC[C@]12OC(C)(C)C3CC(C=C4C(=O)c5c(O)cc6c(c5OC431)C(C)(C)C(C)O6)C2=O (stereo partly drawn) [Sootepenseone (1; D-25637), sootepenseone]",anticancer activity against all tested tumor cell lines,[5],significant anticancer activity
same,activity in the hollow-fiber test compared with the standard compounds,"[1]; in words, KB and MCF-7",more active
same,% Inhibition (cell line) KB,[1],49%
same,% Inhibition (cell line) MCF-7,[3],41%
same,LD50,[4],> 100 mg/kg
same,less toxic than Adriamycin,[2]; from LD50 i.p. mice,60%
same,less toxic than Bleomycin,[2]; from LD50 i.p. mice,20%
same,times less toxic than Actinomycin D,[2]; from LD50 i.p. mice,at least 100 times
same,times less toxic than Vinblastin,[2]; from LD50 i.p. mice,about 16 times
CC[C@]1(O)C[C@@H]2CN(CCc3c([nH]c4ccccc34)[C@@](C(=O)OC)(c3cc4c(cc3OC)N(C)[C@H]3[C@@](O)(C(=O)OC)[C@H](OC(C)=O)[C@]5(CC)C=CCN6CC[C@]43[C@@H]65)C2)C1 [Vinblastin],% Inhibition (cell line) KB,[1],13%
same,LD50 (mg/kg i.p. mice),[2],ca. 6 mg/kg
Bleomycin,% Inhibition (cell line) KB,[1],53%
same,LD50 (mg/kg i.p. mice),[2],ca. 80 mg/kg
